Test results as given in patent US6639089B2, “Anticancer agents, perfumes or foods and drinks” (Soda Aromatic Co., Ltd., priority 2001, dated 2003).
Like-named read-outs stand apart in the source and are kept apart here.

Experiments:
[1] = tested on: melanoma cell line B16BL6; experiment: Cancer cell mobility test (cancer invasion inhibitory action), Boyden double chamber with Matrigel/fibronectin; assay type: cell-based; conditions: for Tumor Invasion (cell/mm^2) 5 μM / Tumor Invasion (cell/mm^2) 20 μM: administered to cells 18 hours in advance, B16BL6, counted after 3.5 hours; for activity at 20 µM: Mus musculus
Experimental: (§1) A Boyden double chamber was used, in which a porous film with 8 μm pores was placed, the upper surface of the porous film being coated with Matrigel as a reconstructed membrane, the lower surface of the porous film being coated with fibronectin as an extracellular matrix. In the upper compartment of the chamber, 200,000 cells of melanoma cell line B16BL6, a type of skin cancer, were inoculated, and after 3.5 hours, Diff Quick staining was performed and the number of invasive cancer cells invading the lower compartment was counted using a CCD camera/multibioscanner. The compounds of the present invention were administered to cancer cells for 18 hours in advance at amounts of 5 μM and 20 μM.

[2] = tested on: human fibrosarcoma cell line HT1080; experiment: as above; assay type: cell-based; conditions: for Tumor Invasion (cell/mm^2) 5 μM / Tumor Invasion (cell/mm^2) 10 μM: administered to cells 18 hours in advance, HT1080, counted after 3.5 hours; for Cell Invasion Rate at 10 μM (%): relative to no addition = 100%, lower value = higher inhibition
Experimental: as §1, with “of human fibrosarcoma” for “of melanoma”, “line HT1080” for “line B16BL6, a type of skin cancer,”, “and 10” for “and 20”

[3] = tested on: B-16 melanoma cell line BL; experiment: Cancer metastasis inhibitory action test (in vivo), lung metastasis after caudal vein injection of melanoma cells; conditions: lungs on day 14, mean of 6 mice
Experimental: Cancer cells of B-16 melanoma cell line BL were incubated in a 5% CO2 incubator using an MEM culture medium (containing 10% FBS), and the individual cells were dissociated with a 2.5% trypsin solution. The melanoma cells were injected into the caudal vein of BDF1 mice (SPF). The number of cells injected was 2×10^5/0.2 ml/mouse. As test compounds for cancer metastasis inhibitory action, 15-hydroxypentadecanoic acid, 15-pentadecanolide, and 5-cyclohexadecen-1-one were used, and as a positive control compound, Mitomycin Kyowa S (manufactured by Kyowa Hakko Kokyo Co., Ltd.) was used. The test compounds and the positive control compound were dissolved or suspended in olive oil and administered as shown in Table 5 below. (In the case of intravenous administration, micellisation was performed using Tween before administration.) The dosage of the test compounds was 100 mg/kg each time in the case of peritoneal administration, and 10 mg/kg each time in the case of intravenous administration. The dosage of Mitomycin Kyowa S as the positive control compound was 0.5 mg/kg each time by peritoneal administration.
From day 10 post-implant onward, metastatic cancer cells of mice in the satellite group were observed, and on day 14 when the size of the cells was believed to be suitable for evaluation, the mice were sacrificed and the lungs were enucleated. The number of metastatic cancer cells was then counted.

[4] = tested on: adenocarcinoma 755 cell line; experiment: Test for action of killing cancer (in vivo), subcutaneous tumor weight; set-up: species or system mice; conditions: subcutaneous injection daily at 10 mg/kg for 5 days; tumors excised day 10 post-implant; control group 9.0 g
Experimental: In the backs of 6-week-old mice (first filial hybrid of C57BL/6 and DBA/2), 10^6 cells of adenocarcinoma 755 cell line were subcutaneously implanted. After 24 hours, a solution in which each sample was suspended, at a concentration of 50 mg/ml, in a physiological saline solution of 0.25% surfactant Nikkol HCO-60 (manufactured by Nikko Chemicals Co., Ltd.; polyoxyethylene (40) hydrogenated castor oil), was subcutaneously injected into a group of 8 mice, daily at 10 mg/kg for 5 days. On day 10 post-implant of adenocarcinoma 755 cells, the mice were sacrificed and tumors were excised. The average weight (g) of the tumors was obtained. As a result, the average weight of the control group was 9.0 g, while the average weight of the group to which 5-cyclohexadecen-1-one had been administered was as small as 1.9 g. The significant action of killing cancer was thus confirmed.

[5] = tested on: Rat spontaneous mammary cancer cells (SST-2); experiment: Cancer metastasis inhibitory action test (in vivo), lung metastasis of subcutaneously implanted SST-2; conditions: day 7 pre-implant to day 34 post-implant; for Average number of metastatic colonies formed: lung, after 35 days; for Lung weight / Subcutaneous tumor weight: sacrifice after 35 days
Experimental: Rat spontaneous mammary cancer cells (SST-2) (1×10^5 cells) were subcutaneously implanted in the backs of Wister male rats (5 rats for each group). After 35 days, the rats were sacrificed, and the lung weight and the number of colonies formed were measured to observe the extent of lung metastasis of the SST-2. With respect to the groups to which 5-cyclohexadecen-1-one as the compound of the present invention was administered, 20 mg/rat and 5 mg/rat were orally administered and subcutaneously injected, from day 7 pre-implant to day 34 post-implant, and the subcutaneous tumor weight, the lung weight, and the number of metastatic colonies formed were compared with those of the control group, to which no treatment was provided.

[6] = tested on: melanoma cell line B16BL6; conditions: comparison derivatives of L-ascorbic acid (JP-A-8-291075); cited from earlier work
[7] = Peritoneal administration, 100 mg/kg each time
[8] = B16-BL6, 20 μM, relative to no addition = 100%, lower value = higher inhibition, read-out: Cell Invasion Rate at 20 μM (%)
[9] = Subcutaneous injection 5 mg/rat
[10] = Subcutaneous injection 20 mg/rat
[11] = B16-BL6, read-out: Cell Invasion Rate at 20 μM (%)

| Compound | Tumor Invasion (cell/mm^2) 5 μM [1] [cell/mm^2] | Tumor Invasion (cell/mm^2) 20 μM ([1]; 20 μM) [cell/mm^2] | Tumor Invasion (cell/mm^2) 5 μM [2] [cell/mm^2] | Tumor Invasion (cell/mm^2) 10 μM [2] [cell/mm^2] | Cell Invasion Rate at 10 μM (%) [2] [%] | activity at 20 µM [1, 8] [%] | other results |
| --- | --- | --- | --- | --- | --- | --- | --- |
| 11(12)-pentadecen-15-olide | 234 ± 17 | 146 ± 31 | – | – | – | – | Cell Invasion Rate at 20 μM (%) ([1]; 20 μM, relative to no addition = 100%, lower value = higher inhibition): 29.0% |
| 12-oxahexadecen-16-olide | – | – | 218 | 109 | 20.8 | – | – |
| O=C1CCCC=CCCCCCCCCCC1 [5-cyclohexadecen-1-one] | 285 ± 36 | 143 ± 14 | – | – | – | 31.6 | Number of metastatic cells [3, 7]: 35.6; average weight of the tumors [4]: 1.9 g; Average number of metastatic colonies formed ([5]; Oral administration 5 mg/rat): 28.4; Lung weight ([5]; Oral administration 5 mg/rat): 1.5 g; Subcutaneous tumor weight ([5]; Oral administration 5 mg/rat): 46.4 g; Average number of metastatic colonies formed ([5]; Oral administration 20 mg/rat): 17.5; Lung weight ([5]; Oral administration 20 mg/rat): 1.4 g; Subcutaneous tumor weight ([5]; Oral administration 20 mg/rat): 44.7 g; Average number of metastatic colonies formed [5, 9]: 15.7; Lung weight [5, 9]: 1.3 g; Subcutaneous tumor weight [5, 9]: 43.5 g; Average number of metastatic colonies formed [5, 10]: 10.9; Lung weight [5, 10]: 1.1 g; Subcutaneous tumor weight [5, 10]: 42.0 g |
| CCCCCCCCCCCC1CCCC(=O)O1 (centres unmarked) [5-hexadecanolide] | – | – | 144 | 111 | 27.5 | – | – |
| O=C1CCCCCCCC=CCCCCCCO1 [9-hexadecen-16-olide] | 257 ± 42 | 113 ± 19 | – | – | – | 22.5 | – |
| O=C1CCCCCCCCCCCO1 [12-dodecanolide] | 405 ± 38 | 461 ± 67 | – | – | – | 91.7 | – |
| O=C(O)CCCCCCCCCCCO [12-hydroxydodecanoic acid] | 324 ± 23 | 246 ± 30 | – | – | – | – | activity at 20 µM [1, 11]: 48.9% |
| O=C(O)CCCCCCCCCCC(=O)CCCO [15-hydroxy-12-oxopentadecanoic acid] | 268 ± 34 | 119 ± 25 | – | – | – | 23.7 | – |
| O=C(O)CCCCCCCCCCCCCCO [15-hydroxypentadecanoic acid] | 289 ± 45 | 135 ± 11 | – | – | – | 26.8 | Number of metastatic cells [3, 7]: 78.0 |
| O=C1CCCCCCCCCCCCCCO1 [15-pentadecanolide] | 386 ± 26 | 324 ± 27 | – | – | – | 64.4 | Number of metastatic cells ([3]; Intravenous administration, 10 mg/kg each time, 3 times on day of implantation): 52.2; Number of metastatic cells [3, 7]: 134.3 |
| O=C1CCCCCCCCCCCCCCCO1 [16-hexadecanolide] | 370 ± 62 | 293 ± 43 | – | – | – | 58.3 | – |
| O=C(O)CCCCCCCCCCCC(=O)CCCO [16-hydroxy-13-oxohexadecanoic acid] | – | – | 214 | 121 | 31.8 | – | – |
| O=C(O)CCCCCCCCCCCCCCCO [16-hydroxyhexadecanoic acid] | 301 ± 47 | 199 ± 32 | – | – | – | – | activity at 20 µM [1, 11]: 39.6% |
| O=C1CCCCCCCCCCCCCC1 [Cyclopentadecanone] | 459 ± 39 | 491 ± 35 | – | – | – | – | activity at 20 µM [1, 11]: 109% |
| O=C1CCCCCCCCCCCC(=O)OCCO1 [Ethylene tridecanedioate] | – | – | 226 | 84 | 16.0 | – | – |
| O=C1O[C@H]([C@@H](O)CO)C(O)=C1OP(=O)(O)O [L-ascorbyl 2-phosphate] | – | – | – | – | – | – | concentration at which a 25% cancer cell invasion inhibition was obtained [6]: approximately 280 μM |
| CCCCCCCCCCCCCCCC(=O)OC[C@H](O)[C@H]1OC(=O)C(O)=C1O [L-ascorbyl 6-O-palmitate] | – | – | – | – | – | – | concentration at which a 25% cancer cell invasion inhibition was obtained [6]: approximately 110 μM |
| CNC(=O)[C@@H](NC(=O)[C@H](CC(C)C)[C@H](O)C(=O)NO)C(C)(C)C [Marimastat, reference compound] | – | – | 269 | 172 | 42.6 | – | – |
| CO[C@@]12[C@H](COC(N)=O)C3=C(C(=O)C(C)=C(N)C3=O)N1C[C@@H]1N[C@@H]12 [Mitomycin, reference compound] | – | – | – | – | – | – | Number of metastatic cells ([3]; Peritoneal administration, 0.5 mg/kg each time, 3 times on day of implantation): 21.2 |
| CCOC(=O)CCCCCCCCCC=CCCCO [ethyl-15-hydroxy-11(12)-pentadecenoate] | – | – | 129 | 106 | 28.6 | – | – |
